For one molecule, inhibition, Activity and K results are on record in ChEMBL document CHEMBL4339206, “Specific stabilization of DNA G-quadruplex structures with a chemically modified complementary probe” (Bioorg Med Chem, 2019).

The source made the active and inactive calls. No cut-off for these calls is given here.

Common to all, as to type: nucleic-acid assay
For experiment [1], the system named is Quadruplex DNA. The experiment in a line: Binding affinity to HT4-2 template G-quadruplex DNA (unknown origin) assessed as inhibition of polymerase progression at 2nt separation site at 20 to 100 uM using FAM-lablled primer P18 and dNTPs measured after 30 mins by phosphorimaging based taq polymerase stop assay.
Experiment [2] has as its system Quadruplex DNA. The experiment in a line: Binding affinity to HT4-2-Mut3 template G-quadruplex DNA (unknown origin) assessed as inhibition of polymerase progression at 2nt separation site at 20 to 100 uM using FAM-lablled primer P18 and dNTPs measured after 30 mins by phosphorimaging based taq polymerase stop assay.
Experiment [3] relates to Quadruplex DNA. The experiment in a line: Binding affinity to HT4-2-Mut1 template G-quadruplex DNA (unknown origin) assessed as inhibition of polymerase progression at 2nt separation site at 20 to 100 uM using FAM-lablled primer P18 and dNTPs measured after 30 mins by phosphorimaging based taq polymerase stop assay.
The test system of experiment [4] is Quadruplex DNA. The experiment in a line: Binding affinity to HT4-2 template G-quadruplex DNA (unknown origin) assessed as primer extension stopped right before TTAGGG-repeating at 20 to 100 uM using FAM-lablled primer P18 and dNTPs measured after 30 mins in presence of marker 2 by phosphorimaging based taq polymerase stop assay.
In experiment [5] the test system is Quadruplex DNA. The experiment in a line: Binding affinity to HT G-quadruplex DNA (unknown origin) assessed as stabilization of parallel G-quadruplex structure at 10 to 70 uM by CD spectroscopic method.
The subject of experiment [6] is Quadruplex DNA. The experiment in a line: Binding affinity to HT G-quadruplex DNA (unknown origin) measured after 5 mins by UV-visible absorption titration method.
Experiment [7] relates to Quadruplex DNA. Nature of the experiment: Binding affinity to HT4-2 template G-quadruplex DNA (unknown origin) at 55 degC.
Experiment [8] relates to Quadruplex DNA. The experiment in a line: Binding affinity to HT4-2-Mut2 template G-quadruplex DNA (unknown origin) assessed as inhibition of polymerase progression at 2nt separation site at 20 to 100 uM using FAM-lablled primer P18 and dNTPs measured after 30 mins by phosphorimaging based taq polymerase stop assay.

For the molecule `[N-]=[N+]=NCCCC[N+]1(CCOc2ccc(/N=N/c3ccc(OCC[N+]4(CCCCN=[N+]=[N-])CCCCC4)cc3)cc2)CCCCC1`, the inhibition result in the experiment with Quadruplex DNA [1] is “Active”. The inhibition entry in the experiment with Quadruplex DNA [2], in the experiment with Quadruplex DNA [3] and in the experiment on Quadruplex DNA [8] was “inactive” throughout. Moreover, the outcome with Quadruplex DNA [4] and in the experiment with Quadruplex DNA [5] was Active. Moreover, in the experiment on Quadruplex DNA [6], the K was 2.1 ×10⁵ /M. Further, the result in the experiment on Quadruplex DNA [7] was inactive.
